Experiments:
Test in all cases: biochemical
Parameters in all cases: KINOMEscan competition binding panel, per cent of control
Settings in all cases: read-out: %Ctrl @ 2800nM
PRKX = PRKX (Homo sapiens, UniProt P51817)
Summary of the method: (§1)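 Competition binding panel (KINOMEscan) across 450 human kinases and disease-relevant mutants, run to the contractor's standard protocol. Values are % control: (test signal − positive control signal)/(negative control signal − positive control signal) × 100, with lower values indicating stronger binding.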

CAMK2D = CAMK2D (Homo sapiens, UniProt Q13557)
Summary of the method: as §1

CSNK1G2 = CSNK1G2 (Homo sapiens, UniProt P78368)
Summary of the method: as §1

NEK2 = NEK2 (Homo sapiens, UniProt P51955)
Summary of the method: as §1

DMPK = DMPK (Homo sapiens, UniProt Q09013)
Summary of the method: as §1

PIP5K2C = target: T1, PIP5K2C (Homo sapiens, UniProt Q8TBX8)
T1 construct: gene PIP4K2C
Summary of the method: as §1

MRCKB = target: T2, MRCKB (Homo sapiens, UniProt Q9Y5S2)
T2 construct: gene CDC42BPB
Summary of the method: as §1

TBK1 = TBK1 (Homo sapiens, UniProt Q9UHD2)
Summary of the method: as §1

RET(M918T) = RET(M918T) (Homo sapiens, UniProt P07949, M918T)
Summary of the method: as §1

FAK = target: T3, FAK (Homo sapiens, UniProt Q05397)
T3 construct: gene PTK2
Summary of the method: as §1

NDR2 = target: T4, NDR2 (Homo sapiens, UniProt Q9Y2H1)
T4 construct: gene STK38L
Summary of the method: as §1

FGFR3 = FGFR3 (Homo sapiens, UniProt P22607)
Summary of the method: as §1

AKT1 = AKT1 (Homo sapiens, UniProt P31749)
Summary of the method: as §1

EPHB3 = EPHB3 (Homo sapiens, UniProt P54753)
Summary of the method: as §1

SNRK = SNRK (Homo sapiens, UniProt Q9NRH2)
Summary of the method: as §1

CDK5 = CDK5 (Homo sapiens, UniProt Q00535)
Summary of the method: as §1

BRAF(V600E) = BRAF(V600E) (Homo sapiens, UniProt P15056, V600E)
Summary of the method: as §1

FGFR4 = FGFR4 (Homo sapiens, UniProt P22455)
Summary of the method: as §1

NEK1 = NEK1 (Homo sapiens, UniProt Q96PY6)
Summary of the method: as §1

DRAK2 = target: T5, DRAK2 (Homo sapiens, UniProt O94768)
T5 construct: gene STK17B
Summary of the method: as §1

ASK1 = target: T6, ASK1 (Homo sapiens, UniProt Q99683)
T6 construct: gene MAP3K5
Summary of the method: as §1

RET = RET (Homo sapiens, UniProt P07949)
Summary of the method: as §1

MST3 = target: T7, MST3 (Homo sapiens, UniProt Q9Y6E0)
T7 construct: gene STK24
Summary of the method: as §1

FLT3(ITD,F691L) = FLT3(ITD,F691L) (Homo sapiens, UniProt P36888, F691L/ITD)
Summary of the method: as §1

AMPK-alpha2 = target: T8, AMPK-alpha2 (Homo sapiens, UniProt P54646)
T8 construct: gene PRKAA2
Summary of the method: as §1

PIK3CA(E545K) = PIK3CA(E545K) (Homo sapiens, UniProt P42336, E545K)
Summary of the method: as §1

CDK5, sequence (Q00535 whole entry): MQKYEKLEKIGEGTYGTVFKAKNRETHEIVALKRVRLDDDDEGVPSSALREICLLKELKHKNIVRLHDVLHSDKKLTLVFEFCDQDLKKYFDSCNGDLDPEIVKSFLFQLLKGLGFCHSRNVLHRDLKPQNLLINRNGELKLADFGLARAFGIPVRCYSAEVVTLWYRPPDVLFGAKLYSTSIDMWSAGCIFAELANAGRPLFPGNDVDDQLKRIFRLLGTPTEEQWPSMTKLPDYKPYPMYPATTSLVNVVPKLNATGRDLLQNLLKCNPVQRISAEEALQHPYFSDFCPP
FGFR3, sequence (P22607 whole entry): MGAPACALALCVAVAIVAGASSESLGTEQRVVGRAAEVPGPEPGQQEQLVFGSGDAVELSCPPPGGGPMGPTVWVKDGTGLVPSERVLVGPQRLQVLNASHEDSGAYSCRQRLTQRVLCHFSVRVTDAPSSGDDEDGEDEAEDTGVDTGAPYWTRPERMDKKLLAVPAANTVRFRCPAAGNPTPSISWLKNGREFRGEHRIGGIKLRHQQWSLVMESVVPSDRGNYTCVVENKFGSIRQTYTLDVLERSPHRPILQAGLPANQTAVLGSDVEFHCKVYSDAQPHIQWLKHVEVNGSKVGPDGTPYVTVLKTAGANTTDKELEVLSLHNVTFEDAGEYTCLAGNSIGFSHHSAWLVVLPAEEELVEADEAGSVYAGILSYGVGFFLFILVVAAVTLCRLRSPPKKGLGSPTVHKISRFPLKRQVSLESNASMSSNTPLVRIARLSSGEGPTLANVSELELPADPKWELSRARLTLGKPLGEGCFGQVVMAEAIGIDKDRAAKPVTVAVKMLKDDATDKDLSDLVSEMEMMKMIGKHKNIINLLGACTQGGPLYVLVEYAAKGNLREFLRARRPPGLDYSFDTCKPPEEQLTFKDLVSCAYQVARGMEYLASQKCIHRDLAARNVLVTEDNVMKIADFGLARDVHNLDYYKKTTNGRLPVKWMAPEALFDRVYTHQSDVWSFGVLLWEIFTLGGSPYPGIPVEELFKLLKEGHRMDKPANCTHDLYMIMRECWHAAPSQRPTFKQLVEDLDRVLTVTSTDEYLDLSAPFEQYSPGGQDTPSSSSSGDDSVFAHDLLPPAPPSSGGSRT
T2 sequence (Q9Y5S2 whole entry): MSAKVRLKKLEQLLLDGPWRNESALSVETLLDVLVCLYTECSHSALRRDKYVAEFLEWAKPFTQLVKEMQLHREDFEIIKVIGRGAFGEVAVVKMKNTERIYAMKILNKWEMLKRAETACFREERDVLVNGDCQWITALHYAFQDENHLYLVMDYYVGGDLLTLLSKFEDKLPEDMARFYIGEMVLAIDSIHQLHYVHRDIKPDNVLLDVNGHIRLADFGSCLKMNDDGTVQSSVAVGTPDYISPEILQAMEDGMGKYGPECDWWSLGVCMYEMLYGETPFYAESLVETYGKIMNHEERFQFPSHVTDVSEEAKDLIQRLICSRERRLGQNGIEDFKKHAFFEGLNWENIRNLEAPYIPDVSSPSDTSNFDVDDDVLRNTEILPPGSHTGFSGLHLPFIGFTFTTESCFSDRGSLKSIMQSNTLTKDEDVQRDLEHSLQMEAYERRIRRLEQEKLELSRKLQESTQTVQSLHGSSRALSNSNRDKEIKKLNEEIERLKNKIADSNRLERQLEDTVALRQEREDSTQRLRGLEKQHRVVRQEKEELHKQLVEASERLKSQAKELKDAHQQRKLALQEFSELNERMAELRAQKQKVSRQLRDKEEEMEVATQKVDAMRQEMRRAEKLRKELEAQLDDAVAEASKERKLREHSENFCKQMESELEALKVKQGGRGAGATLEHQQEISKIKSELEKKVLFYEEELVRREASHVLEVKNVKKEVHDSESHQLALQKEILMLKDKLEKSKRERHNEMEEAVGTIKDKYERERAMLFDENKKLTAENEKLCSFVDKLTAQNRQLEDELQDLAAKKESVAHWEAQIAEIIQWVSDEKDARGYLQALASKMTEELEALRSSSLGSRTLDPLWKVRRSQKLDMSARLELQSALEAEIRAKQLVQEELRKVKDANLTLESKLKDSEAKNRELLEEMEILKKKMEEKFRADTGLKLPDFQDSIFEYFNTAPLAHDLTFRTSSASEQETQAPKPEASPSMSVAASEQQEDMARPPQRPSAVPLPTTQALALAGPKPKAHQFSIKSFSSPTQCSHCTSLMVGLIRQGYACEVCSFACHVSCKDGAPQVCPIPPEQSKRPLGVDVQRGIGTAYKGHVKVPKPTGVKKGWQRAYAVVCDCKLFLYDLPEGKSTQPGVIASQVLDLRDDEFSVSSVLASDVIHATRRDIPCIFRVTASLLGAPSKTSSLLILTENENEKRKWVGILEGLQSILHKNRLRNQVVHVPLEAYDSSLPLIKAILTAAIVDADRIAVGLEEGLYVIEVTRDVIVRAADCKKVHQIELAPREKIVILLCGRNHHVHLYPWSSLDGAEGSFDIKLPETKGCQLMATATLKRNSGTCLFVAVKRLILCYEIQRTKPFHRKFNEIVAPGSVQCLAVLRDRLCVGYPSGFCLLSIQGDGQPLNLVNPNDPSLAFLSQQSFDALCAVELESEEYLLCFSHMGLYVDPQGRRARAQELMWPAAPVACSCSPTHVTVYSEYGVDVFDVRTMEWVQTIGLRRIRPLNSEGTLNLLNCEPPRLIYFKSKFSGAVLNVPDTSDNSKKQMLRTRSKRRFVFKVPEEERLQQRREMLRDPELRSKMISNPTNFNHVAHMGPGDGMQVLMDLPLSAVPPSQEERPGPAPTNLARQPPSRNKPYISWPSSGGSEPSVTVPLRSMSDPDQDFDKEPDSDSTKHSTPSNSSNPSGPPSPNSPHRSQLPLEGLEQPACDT
T3 sequence (Q05397 whole entry): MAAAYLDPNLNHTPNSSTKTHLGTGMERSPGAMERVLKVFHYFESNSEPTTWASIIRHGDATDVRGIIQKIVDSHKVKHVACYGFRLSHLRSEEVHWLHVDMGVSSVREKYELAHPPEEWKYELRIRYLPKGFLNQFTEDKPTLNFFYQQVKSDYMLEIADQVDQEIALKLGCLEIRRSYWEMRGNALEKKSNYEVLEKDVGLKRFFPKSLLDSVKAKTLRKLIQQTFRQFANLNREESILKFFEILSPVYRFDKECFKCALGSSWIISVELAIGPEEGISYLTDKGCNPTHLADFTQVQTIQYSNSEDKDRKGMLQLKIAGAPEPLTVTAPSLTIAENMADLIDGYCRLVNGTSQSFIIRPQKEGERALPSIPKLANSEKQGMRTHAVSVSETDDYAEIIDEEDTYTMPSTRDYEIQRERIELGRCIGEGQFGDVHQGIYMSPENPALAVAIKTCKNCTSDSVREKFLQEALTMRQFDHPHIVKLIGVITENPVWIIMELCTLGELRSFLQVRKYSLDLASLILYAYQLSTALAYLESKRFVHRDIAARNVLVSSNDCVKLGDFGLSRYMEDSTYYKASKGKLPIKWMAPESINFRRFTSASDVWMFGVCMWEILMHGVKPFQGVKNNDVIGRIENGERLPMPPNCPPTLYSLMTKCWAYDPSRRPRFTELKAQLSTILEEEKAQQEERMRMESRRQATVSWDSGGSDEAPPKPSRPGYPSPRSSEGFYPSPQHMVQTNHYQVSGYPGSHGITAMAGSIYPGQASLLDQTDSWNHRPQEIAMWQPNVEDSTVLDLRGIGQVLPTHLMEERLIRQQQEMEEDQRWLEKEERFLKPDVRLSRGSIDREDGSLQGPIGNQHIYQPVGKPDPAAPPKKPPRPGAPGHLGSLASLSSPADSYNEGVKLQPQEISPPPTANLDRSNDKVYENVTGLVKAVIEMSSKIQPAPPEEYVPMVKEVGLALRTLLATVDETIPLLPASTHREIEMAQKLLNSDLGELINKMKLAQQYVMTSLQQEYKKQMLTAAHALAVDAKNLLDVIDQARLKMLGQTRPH
T4 sequence (Q9Y2H1 whole entry): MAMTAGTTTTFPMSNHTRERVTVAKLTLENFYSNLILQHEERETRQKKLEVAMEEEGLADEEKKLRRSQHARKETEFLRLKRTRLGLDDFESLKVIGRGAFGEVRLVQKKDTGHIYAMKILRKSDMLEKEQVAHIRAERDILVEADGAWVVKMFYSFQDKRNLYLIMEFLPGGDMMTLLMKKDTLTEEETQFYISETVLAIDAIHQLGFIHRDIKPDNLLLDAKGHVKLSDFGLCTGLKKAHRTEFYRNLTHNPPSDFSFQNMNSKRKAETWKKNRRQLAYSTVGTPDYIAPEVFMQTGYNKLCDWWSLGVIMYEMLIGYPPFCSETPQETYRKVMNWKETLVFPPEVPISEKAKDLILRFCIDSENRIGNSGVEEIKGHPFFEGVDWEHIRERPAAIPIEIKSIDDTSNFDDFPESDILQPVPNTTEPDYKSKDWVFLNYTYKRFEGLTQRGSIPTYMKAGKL
CSNK1G2, sequence (P78368 whole entry): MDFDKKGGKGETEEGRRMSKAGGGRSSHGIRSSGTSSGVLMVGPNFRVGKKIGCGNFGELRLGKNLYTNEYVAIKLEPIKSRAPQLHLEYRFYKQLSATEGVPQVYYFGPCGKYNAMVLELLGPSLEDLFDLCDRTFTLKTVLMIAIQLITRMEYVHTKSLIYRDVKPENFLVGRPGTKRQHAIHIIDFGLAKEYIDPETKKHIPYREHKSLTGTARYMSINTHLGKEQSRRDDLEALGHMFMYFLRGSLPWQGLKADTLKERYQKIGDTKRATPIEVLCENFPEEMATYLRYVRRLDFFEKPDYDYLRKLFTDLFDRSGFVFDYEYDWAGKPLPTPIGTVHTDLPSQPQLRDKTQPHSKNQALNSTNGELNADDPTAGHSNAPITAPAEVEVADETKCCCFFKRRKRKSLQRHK

[O-][S@@+](Cc1cncs1)C(c1ccccc1)c1ccccc1 [S-CE-123, (S)-5-((Benzhydrylsulfinyl)Methyl)Thiazole]
remaining binding at 2.8 µM (PRKX): 100%
remaining binding at 2.8 µM (CAMK2D): 88%
remaining binding at 2.8 µM (CSNK1G2): 94%
remaining binding at 2.8 µM (NEK2): 96%
remaining binding at 2.8 µM (DMPK): 96%
remaining binding at 2.8 µM (PIP5K2C): 100%
remaining binding at 2.8 µM (MRCKB): 98%
remaining binding at 2.8 µM (TBK1): 100%
remaining binding at 2.8 µM (RET(M918T)): 89%
remaining binding at 2.8 µM (FAK): 100%
remaining binding at 2.8 µM (NDR2): 82%
remaining binding at 2.8 µM (FGFR3): 91%
remaining binding at 2.8 µM (AKT1): 99%
remaining binding at 2.8 µM (EPHB3): 100%
remaining binding at 2.8 µM (SNRK): 98%
remaining binding at 2.8 µM (CDK5): 97%
remaining binding at 2.8 µM (BRAF(V600E)): 100%
remaining binding at 2.8 µM (FGFR4): 100%
remaining binding at 2.8 µM (NEK1): 90%
remaining binding at 2.8 µM (DRAK2): 95%
remaining binding at 2.8 µM (ASK1): 84%
remaining binding at 2.8 µM (RET): 96%
remaining binding at 2.8 µM (MST3): 87%
remaining binding at 2.8 µM (FLT3(ITD,F691L)): 50%
remaining binding at 2.8 µM (AMPK-alpha2): 97%
remaining binding at 2.8 µM (PIK3CA(E545K)): 82%
